Test results published in PubChem BioAssay (NCI).
Values joined by “and” are separate entries in the source; they are usually repeats but may differ in a detail not shown here. Equal values may be shown once.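 Cells were grown in 96-well plates and exposed to each compound for 48 hours at five concentrations; endpoints were interpolated linearly between bracketing concentrations, or set to the highest concentration if not reached. GI50: concentration for 50% inhibition of growth. TGI: concentration producing complete growth inhibition.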

Assays:
Experiment in all cases: DTP human tumour cell line panel, 48 h; in the data active = GI50 below about 0.43 µM; inactive = the rest
MCF7 breast = test system: MCF7 breast
HCT-15 colon = test system: HCT-15 colon
NCI/ADR-RES ovarian = test system: NCI/ADR-RES ovarian
SF-268 CNS = test system: SF-268 CNS
UO-31 renal = test system: UO-31 renal
HOP-92 NSCLC = test system: HOP-92 NSCLC
UACC-62 melanoma = test system: UACC-62 melanoma
ACHN renal = test system: ACHN renal
HL-60(TB) leukemia = test system: HL-60(TB) leukemia
NCI-H522 lung = test system: NCI-H522 lung
BT-549 breast = test system: BT-549 breast
HT29 colon = test system: HT29 colon
A498 renal = test system: A498 renal
SK-MEL-5 melanoma = test system: SK-MEL-5 melanoma
COLO 205 colon = test system: COLO 205 colon
T-47D breast = test system: T-47D breast
SW-620 colon = test system: SW-620 colon
SK-MEL-28 melanoma = test system: SK-MEL-28 melanoma
HOP-62 NSCLC = test system: HOP-62 NSCLC
PC-3 prostate = test system: PC-3 prostate
A549 NSCLC = test system: A549 NSCLC
SNB-75 CNS = test system: SNB-75 CNS
U251 CNS = test system: U251 CNS
786-0 renal = test system: 786-0 renal
MALME-3M melanoma = test system: MALME-3M melanoma
DU-145 prostate = test system: DU-145 prostate
NCI-H460 lung = test system: NCI-H460 lung
HCC-2998 colon = test system: HCC-2998 colon
TK-10 renal = test system: TK-10 renal
SK-MEL-2 melanoma = test system: SK-MEL-2 melanoma
M14 melanoma = test system: M14 melanoma
UACC-257 melanoma = test system: UACC-257 melanoma
LOX IMVI melanoma = test system: LOX IMVI melanoma
MDA-MB-435 = test system: MDA-MB-435
IGROV1 ovarian = test system: IGROV1 ovarian
SF-539 CNS = test system: SF-539 CNS
KM12 colon = test system: KM12 colon
SF-295 CNS = test system: SF-295 CNS
K-562 leukemia = test system: K-562 leukemia
HCT-116 colon = test system: HCT-116 colon
SN12C renal = test system: SN12C renal
NCI-H226 lung = test system: NCI-H226 lung
RPMI-8226 leukemia = test system: RPMI-8226 leukemia
EKVX NSCLC = test system: EKVX NSCLC
MDA-MB-231 breast = test system: MDA-MB-231 breast
OVCAR-5 ovarian = test system: OVCAR-5 ovarian
NCI-H23 lung = test system: NCI-H23 lung
CCRF-CEM leukemia = test system: CCRF-CEM leukemia
HS 578T breast = test system: HS 578T breast
SR leukemia = test system: SR leukemia
SK-OV-3 ovarian = test system: SK-OV-3 ovarian
SNB-19 CNS = test system: SNB-19 CNS
OVCAR-8 ovarian = test system: OVCAR-8 ovarian
OVCAR-3 ovarian = test system: OVCAR-3 ovarian
MOLT-4 leukemia = test system: MOLT-4 leukemia
OVCAR-4 ovarian = test system: OVCAR-4 ovarian

COC(=O)C12CC(NC(=O)c3csc([C@@H](C[C@H](C(C)C)N(C)C(=O)[C@@H](NC(=O)[C@H]4CCCCN4C)C(C)C)OC(C)=O)n3)(C1)C2
1.69 nM: TGI (MDA-MB-435)
829 nM and 194 nM: TGI (A498 renal)
93.9 nM and 330 nM: TGI (BT-549 breast)
32.4 nM and 173 nM: TGI (SK-MEL-5 melanoma)
active: GI50 (MCF7 breast) 0.598 nM and 3.33 nM | GI50 (HCT-15 colon) 14.5 nM and 8.01 nM | GI50 (NCI/ADR-RES ovarian) 147 nM | GI50 (SF-268 CNS) 4.88 nM and 3.88 nM | GI50 (UO-31 renal) 46.2 nM | GI50 (UACC-62 melanoma) 3.13 nM and 3.33 nM | GI50 (ACHN renal) 17.4 nM | GI50 (HL-60(TB) leukemia) 0.345 nM | GI50 (NCI-H522 lung) 0.185 nM and < 3.33 nM | GI50 (BT-549 breast) 4.39 nM and 3.41 nM | GI50 (HT29 colon) 1.77 nM and 3.33 nM | GI50 (A498 renal) 15.3 nM and 4.73 nM | GI50 (SK-MEL-5 melanoma) 0.829 nM and 3.33 nM | GI50 (COLO 205 colon) 1.41 nM | GI50 (T-47D breast) 4.07 nM | GI50 (SW-620 colon) 0.535 nM and 3.33 nM | GI50 (HOP-62 NSCLC) 3.53 nM | GI50 (PC-3 prostate) 6.39 nM and 3.33 nM | GI50 (A549 NSCLC) 16.3 nM and 4.13 nM | GI50 (SNB-75 CNS) 3.33 nM | GI50 (U251 CNS) 4.29 nM and 3.33 nM | GI50 (786-0 renal) 5 nM and 3.33 nM | GI50 (DU-145 prostate) 1.65 nM and 3.33 nM | GI50 (NCI-H460 lung) 2.98 nM and 3.33 nM | GI50 (HCC-2998 colon) 7.48 nM and 3.33 nM | GI50 (TK-10 renal) 379 nM | GI50 (SK-MEL-2 melanoma) 1.97 nM | GI50 (M14 melanoma) 1.76 nM and 3.33 nM | GI50 (LOX IMVI melanoma) 2.17 nM and 3.33 nM | GI50 (MDA-MB-435) 0.165 nM | GI50 (IGROV1 ovarian) 2.37 nM and 3.33 nM | GI50 (SF-539 CNS) 2.26 nM | GI50 (KM12 colon) 5.07 nM and 3.33 nM | GI50 (SF-295 CNS) 4.54 nM | GI50 (K-562 leukemia) 0.513 nM and 3.33 nM | GI50 (HCT-116 colon) 3.02 nM and 3.33 nM | GI50 (SN12C renal) 3 nM and 3.33 nM | GI50 (NCI-H226 lung) 18.1 nM and 22.7 nM | GI50 (RPMI-8226 leukemia) 1.31 nM and 3.33 nM | GI50 (EKVX NSCLC) 18 nM and 4.26 nM | GI50 (MDA-MB-231 breast) 4.34 nM and 3.33 nM | GI50 (NCI-H23 lung) 10.4 nM and 3.33 nM | GI50 (CCRF-CEM leukemia) 0.518 nM and 3.33 nM | GI50 (HS 578T breast) 3.33 nM | GI50 (SR leukemia) 0.745 nM | GI50 (SK-OV-3 ovarian) 6.39 nM and 3.33 nM | GI50 (SNB-19 CNS) 2.2 nM and 3.33 nM | GI50 (OVCAR-8 ovarian) 4.29 nM and 3.33 nM | GI50 (OVCAR-3 ovarian) 0.335 nM and 3.33 nM | GI50 (MOLT-4 leukemia) 6.88 nM and 3.33 nM
16.2 nM: TGI (COLO 205 colon)
0.929 nM and < 3.33 nM: TGI (NCI-H522 lung)
39.6 nM: TGI (HT29 colon)
> 33300 nM: TGI (MCF7 breast) | TGI (HCT-15 colon) | TGI (NCI/ADR-RES ovarian) | TGI (SF-268 CNS) | TGI (HOP-92 NSCLC) | TGI (UACC-62 melanoma) | TGI (ACHN renal) | TGI (SW-620 colon) | TGI (SK-MEL-28 melanoma) | TGI (PC-3 prostate) | TGI (A549 NSCLC) | TGI (SNB-75 CNS) | TGI (U251 CNS) | TGI (786-0 renal) | TGI (MALME-3M melanoma) | TGI (DU-145 prostate) | TGI (NCI-H460 lung) | TGI (HCC-2998 colon) | TGI (TK-10 renal) | TGI (M14 melanoma) | TGI (UACC-257 melanoma) | TGI (LOX IMVI melanoma) | TGI (IGROV1 ovarian) | TGI (KM12 colon) | TGI (K-562 leukemia) | TGI (HCT-116 colon) | TGI (SN12C renal) | TGI (RPMI-8226 leukemia) | TGI (EKVX NSCLC) | TGI (OVCAR-5 ovarian) | TGI (NCI-H23 lung) | TGI (CCRF-CEM leukemia) | TGI (HS 578T breast) | TGI (SK-OV-3 ovarian) | TGI (SNB-19 CNS) | TGI (OVCAR-8 ovarian) | TGI (MOLT-4 leukemia) | TGI (OVCAR-4 ovarian)
2.4 nM and 4.41 nM: TGI (OVCAR-3 ovarian)
inactive: GI50 (HOP-92 NSCLC) > 33300 nM | GI50 (SK-MEL-28 melanoma) > 33300 nM | GI50 (MALME-3M melanoma) 7160 nM | GI50 (UACC-257 melanoma) > 33300 nM
26.7 nM: TGI (SF-539 CNS)
3.02 nM: TGI (HL-60(TB) leukemia)
